Patent publication US6737383B1, “Herbicidal oxadiazolidines” (priority 1999, dated 2004)

Tests used:
[1] = test system: bedstraw; assay: Test B pre/postemergence bedstraw; type: in vivo, Galium aparine; conditions: Postemergence
In short: (§1)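 Test chemicals in a non-phytotoxic solvent mixture with surfactant were sprayed preemergence onto planted seeds and postemergence onto plants 2 to 18 cm tall (1- to 4-leaf stage). After twelve to sixteen days in a greenhouse, injury was visually rated against untreated controls from 0 (no effect) to 10 (complete control).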

[2] = test system: blackgrass; assay: Test B pre/postemergence blackgrass; type: in vivo, Alopecurus myosuroides
In short: as §1

[3] = test system: surinam grass; assay: Test B pre/postemergence surinam grass; type: in vivo, Brachiaria decumbens
In short: as §1

[4] = test system: cocklebur; assay: Test B pre/postemergence cocklebur; type: in vivo, Xanthium strumarium
In short: as §1

[5] = test system: corn; assay: Test B pre/postemergence corn; type: in vivo, Zea mays
In short: as §1

[6] = test system: crabgrass; assay: Test B pre/postemergence crabgrass; type: in vivo, Digitaria sanguinalis
In short: as §1

[7] = test system: giant foxtail; assay: Test B pre/postemergence giant foxtail; type: in vivo, Setaria faberii
In short: as §1

[8] = test system: morningglory; assay: Test B pre/postemergence morningglory; type: in vivo, Ipomoea hederacea
In short: as §1

[9] = test system: velvetleaf; assay: Test B pre/postemergence velvetleaf; type: in vivo, Abutilon theophrasti
In short: as §1

[10] = test system: wheat; assay: Test B pre/postemergence wheat; type: in vivo, Triticum aestivum
In short: as §1

[11] = test system: wild oat; assay: Test B pre/postemergence wild oat; type: in vivo, Avena fatua
In short: as §1

[12] = test system: purple nutsedge; assay: Test B pre/postemergence purple nutsedge; type: in vivo, Cyperus rotundus
In short: as §1

[13] = test system: rice; assay: Test B flood test rice; type: in vivo, Oryza sativa
In short: (§2)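 Read-out is a visual response score from 0 (no effect) to 10 (complete control), assigned by comparison with untreated controls. Treatment was applied at the 2-leaf stage, and plants stayed in the greenhouse for twelve to sixteen days before scoring.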

[14] = test system: smallflower flatsedge; assay: Test B flood test smallflower flatsedge; type: in vivo, Cyperus difformis
In short: as §2

[15] = test system: duck salad; assay: Test B flood test duck salad; type: in vivo, Heteranthera limosa
In short: as §2

[16] = test system: bamyardgrass; assay: Test B flood test barnyardgrass; type: in vivo, Echinochloa crus-galli
In short: as §2

[17] = Postemergence, Rate 250 g/ha, scale 0 to 10
[18] = Postemergence, Rate 500 g/ha, scale of 0 to 10 where 0 is no effect and 10 is complete control
[19] = Preemergence, Rate 62 g/ha, scale of 0 to 10 where 0 is no effect and 10 is complete control
[20] = Preemergence, Rate 125 g/ha, scale of 0 to 10 where 0 is no effect and 10 is complete control
[21] = Preemergence, Rate 250 g/ha, scale 0 to 10, 0 is no effect, 10 is complete control
[22] = Preemergence, Rate 500 g/ha, scale 0 to 10, 0 is no effect, 10 is complete control
[23] = Rate 62 g/ha, Postemergence, scale 0 to 10, 0 no effect, 10 complete control
[24] = Rate 125 g/ha, Postemergence, scale 0 to 10, 0 is no effect, 10 is complete control
[25] = Rate 62 g/ha, flood test species, Pre-emergence, visual evaluation after twelve to sixteen days
[26] = Rate 125 g/ha, under heading Pre-emergence, flood test species, visual evaluation after twelve to sixteen days
[27] = Rate 250 g/ha, Pre-emergence (flood test species), scale 0 to 10, 0 is no effect, 10 is complete control
[28] = Rate 500 g/ha, Pre-emergence, flood test species, scale 0 to 10 (0 no effect, 10 complete control)

`CC(C)N(C(=O)n1oc(=O)n(CCl)c1=O)c1ccc(F)cc1F` [Compound 437] was tested, and the “Bedstraw plant response rating” value ([1]; Rate 250 g/ha, scale 0 to 10) was 0, the “Bedstraw plant response rating” value ([1]; Rate 62 g/ha, scale 0 to 10, 0 no effect, 10 complete control) was 0 and the “Bedstraw plant response rating” value ([1]; Rate 125 g/ha, scale 0 to 10, 0 is no effect, 10 is complete control) was 0. For the same compound, the “Blackgrass plant response rating” value [2, 17] was 0, the “Blackgrass plant response rating” value [2, 18] was 0 and the “Plant response rating, Blackgrass” value [2, 19] was 0. The “Plant response rating, Blackgrass” value [2, 20] was 0, the “Blackgrass plant response rating” value [2, 21] was 0 and the “Blackgrass plant response rating” value [2, 22] was 0. The “Blackgrass plant response rating” value [2, 23] was 0, the “Blackgrass plant response rating” value [2, 24] was 0 and the “B. signalgrass plant response rating” value ([3]; Postemergence, Rate 250 g/ha, scale 0 to 10, 0 no effect, 10 complete control) was 0. The “B. signalgrass plant response rating” value [3, 18] was 0, the “Plant response rating, B. signalgrass” value [3, 19] was 0 and the “Plant response rating, B. signalgrass” value [3, 20] was 0. For the same compound, the “B. signalgrass plant response rating” value [3, 21] was 0, the “B. signalgrass plant response rating” value [3, 22] was 0 and the “B. signalgrass plant response rating” value [3, 23] was 0. The “B. signalgrass plant response rating” value [3, 24] was 0, the “Cocklebur plant response rating” value [4, 17] was 0 and the “Cocklebur plant response rating” value [4, 18] was 1. The “Plant response rating, Cocklebur” value [4, 19] was 0, the “Plant response rating, Cocklebur” value [4, 20] was 0 and the “Cocklebur plant response rating” value [4, 21] was 0. For the same compound, the “Cocklebur plant response rating” value [4, 22] was 0, the “Cocklebur plant response rating” value [4, 23] was 0 and the “Cocklebur plant response rating” value [4, 24] was 0. The “Corn plant response rating” value [5, 17] was 0, the “Corn plant response rating” value [5, 18] was 0 and the “Plant response rating, Corn” value [5, 19] was 0. For the same compound, the “Plant response rating, Corn” value [5, 20] was 0, the “Corn plant response rating” value [5, 21] was 0 and the “Corn plant response rating” value [5, 22] was 0. The “Corn plant response rating” value [5, 23] was 0, the “Corn plant response rating” value [5, 24] was 0 and the “Crabgrass plant response rating” value [6, 17] was 1. For the same compound, the “Crabgrass plant response rating” value [6, 18] was 3, the “Plant response rating, Crabgrass” value [6, 19] was 0 and the “Plant response rating, Crabgrass” value [6, 20] was 0. The “Crabgrass plant response rating” value [6, 21] was 0, the “Crabgrass plant response rating” value [6, 22] was 2 and the “Crabgrass plant response rating” value [6, 23] was 0. The “Crabgrass plant response rating” value [6, 24] was 1, the “Giant foxtail plant response rating” value [7, 17] was 0 and the “Giant foxtail plant response rating” value [7, 18] was 7. For the same compound, the “Plant response rating, Giant foxtail” value [7, 19] was 0, the “Plant response rating, Giant foxtail” value [7, 20] was 0 and the “Giant foxtail plant response rating” value [7, 21] was 0. For the same compound, the “Giant foxtail plant response rating” value [7, 22] was 3, the “Giant foxtail plant response rating” value [7, 23] was 0 and the “Giant foxtail plant response rating” value [7, 24] was 0. For the same compound, the “Morningglory plant response rating” value [8, 17] was 4, the “Morningglory plant response rating” value [8, 18] was 9 and the “Plant response rating, Morningglory” value [8, 19] was 0. The “Plant response rating, Morningglory” value [8, 20] was 0, the “Morningglory plant response rating” value [8, 21] was 0 and the “Morningglory plant response rating” value [8, 22] was 0. For the same compound, the “Morningglory plant response rating” value [8, 23] was 0, the “Morningglory plant response rating” value [8, 24] was 1 and the “Velvetleaf plant response rating” value [9, 17] was 0. For the same compound, the “Velvetleaf plant response rating” value [9, 18] was 0, the “Plant response rating, Velvetleaf” value [9, 19] was 0 and the “Plant response rating, Velvetleaf” value [9, 20] was 0. For the same compound, the “Velvetleaf plant response rating” value [9, 21] was 0, the “Velvetleaf plant response rating” value [9, 22] was 0 and the “Velvetleaf plant response rating” value [9, 23] was 0. For the same compound, the “Velvetleaf plant response rating” value [9, 24] was 0, the “Wheat plant response rating” value [10, 17] was 0 and the “Wheat plant response rating” value [10, 18] was 0. The “Plant response rating, Wheat” value [10, 19] was 0, the “Plant response rating, Wheat” value [10, 20] was 0 and the “Wheat plant response rating” value [10, 21] was 0. For the same compound, the “Wheat plant response rating” value [10, 22] was 0, the “Wheat plant response rating” value [10, 23] was 0 and the “Wheat plant response rating” value [10, 24] was 0. For the same compound, the “Wild oats plant response rating” value [11, 17] was 0, the “Wild oats plant response rating” value [11, 18] was 3 and the “Plant response rating, Wild oats” value [11, 19] was 0. The “Plant response rating, Wild oats” value [11, 20] was 0, the “Wild oats plant response rating” value [11, 21] was 0 and the “Wild oats plant response rating” value [11, 22] was 0. For the same compound, the “Wild oats plant response rating” value [11, 23] was 0, the “Wild oats plant response rating” value [11, 24] was 0 and the “Nutsedge plant response rating” value [12, 17] was 0. The “Nutsedge plant response rating” value [12, 18] was 0, the “Plant response rating, Nutsedge” value [12, 19] was 0 and the “Plant response rating, Nutsedge” value [12, 20] was 0. For the same compound, the “Nutsedge plant response rating” value [12, 21] was 0, the “Nutsedge plant response rating” value [12, 22] was 0 and the “Nutsedge plant response rating” value [12, 23] was 0. The “Nutsedge plant response rating” value [12, 24] was 0, the “Plant response rating, Rice (0 to 10 scale, 0 is no effect, 10 is complete control)” value [13, 25] was 0 and the “Rice plant response rating (0 to 10 scale, 0 is no effect, 10 is complete control)” value [13, 26] was 0. For the same compound, the “Rice plant response rating” value [13, 27] was 0, the “Rice plant response rating” value [13, 28] was 0 and the “Plant response rating, S. Flatsedge (0 to 10 scale, 0 is no effect, 10 is complete control)” value [14, 25] was 0. For the same compound, the “S. Flatsedge plant response rating (0 to 10 scale, 0 is no effect, 10 is complete control)” value [14, 26] was 0, the “S. Flatsedge plant response rating” value [14, 27] was 0 and the “S. Flatsedge plant response rating” value [14, 28] was 0. For the same compound, the “Plant response rating, Ducksalad (0 to 10 scale, 0 is no effect, 10 is complete control)” value [15, 25] was 0, the “Ducksalad plant response rating (0 to 10 scale, 0 is no effect, 10 is complete control)” value [15, 26] was 0 and the “Ducksalad plant response rating” value [15, 27] was 0. The “Ducksalad plant response rating” value [15, 28] was 0, the “Plant response rating, Barnyardgrass (0 to 10 scale, 0 is no effect, 10 is complete control)” value [16, 25] was 0 and the “Barnyardgrass plant response rating (0 to 10 scale, 0 is no effect, 10 is complete control)” value [16, 26] was 0. The “Barnyardgrass plant response rating” value [16, 27] was 0 and the “Barnyardgrass plant response rating” value [16, 28] was 0.
